Entries after “also recorded” stand apart in the source; their conditions may differ. Like-named read-outs stand apart in the source and are kept apart here.
Tests used:
[1] = system: type 2 diabetes patients; details: cited from earlier work
[2] = system: type 2 diabetes patients; experiment: Hyperglycemia Efficacy Index (HEI) of diabetes drugs, from review of phase III trials with 7- or 8-point SMBG; format: in vivo, human; details: median ratio of effect on FBG vs effect on PPG; drugs from the same class have the same HEI
Source text: Such results can be e.g. assessed via scientific publications or regulatory documents which disclose the results for the trials. Suitable scientific publications describing such trials for individual drugs can be, e.g., identified via PubMed. In an embodiment, the trials have assessed large cohorts of diabetes patients such as type 2 diabetes patients and report 7- or 8 point self-monitoring blood glucose data with determinations carried out in the fasting state, in the pre-prandial state and in the post-prandial state. In an embodiment, the trials include only type 2 diabetes patients without major comorbidities.
For establishing the database, the published information on the effects under (d1), (d2), and the risk under (d4) shall be taken into account. The indices under (d3), can be determined based on the published information for the analyzed trials.
In an embodiment, the Hyperglycemia Efficacy Index (HEI) for a drug is the ratio of the effect of said drug on fasting glucose to the effect of said drug on post-prandial glucose (i.e. the effect under (d1) and the effect under (d2)).

C[C@H]1O[C@H](O[C@H]2[C@H](O)[C@@H](O)[C@@H](O[C@H]3[C@H](O)[C@@H](O)C(O)O[C@@H]3CO)O[C@@H]2CO)[C@H](O)[C@@H](O)[C@@H]1N[C@H]1C=C(CO)[C@@H](O)[C@H](O)[C@H]1O (stereo partly drawn) [Acarbose]
Hypo Risk Index (HRI) ([1]; 30 mg): HRI 1 - low
Hypo Risk Index (HRI) ([1]; 300 mg): HRI 1 - low
Hyperglycemia Efficacy Index (HEI) [2]: HEI 0.54

Cc1ccc([C@@H]2O[C@H](CO)[C@@H](O)[C@H](O)[C@H]2O)cc1Cc1ccc(-c2ccc(F)cc2)s1 [Canagliflozin]
Hypo Risk Index (HRI) ([1]; 100 mg): HRI 1 - low
Hypo Risk Index (HRI) ([1]; 300 mg): HRI 1 - low

CCOc1ccc(Cc2cc([C@@H]3O[C@H](CO)[C@@H](O)[C@H](O)[C@H]3O)ccc2Cl)cc1 [Dapagliflozin]
Hypo Risk Index (HRI) ([1]; 10 mg): HRI 1 - low

OC[C@H]1O[C@@H](c2ccc(Cl)c(Cc3ccc(O[C@H]4CCOC4)cc3)c2)[C@H](O)[C@@H](O)[C@@H]1O [Empagliflozin]
Hypo Risk Index (HRI) ([1]; 10 mg): HRI 1 - low
Hypo Risk Index (HRI) ([1]; 25 mg): HRI 1 - low
Hyperglycemia Efficacy Index (HEI) [2]: HEI 0.56

Cc1ccc(S(=O)(=O)NC(=O)NN2CC3CCCC3C2)cc1 (stereo not drawn) [Gliclazide]
Hypo Risk Index (HRI) ([1]; 80-320 mg): HRI 2 - moderate; also recorded: HRI 2 - medium

CCC1=C(C)CN(C(=O)NCCc2ccc(S(=O)(=O)NC(=O)N[C@H]3CC[C@H](C)CC3)cc2)C1=O [Glimepiride]
Hypo Risk Index (HRI) ([1]; 1-8 mg): HRI 2 - moderate; also recorded: HRI 2 - medium

CCCCCCCCCCCCCCCC(=O)N[C@@H](CCC(=O)NCCCC[C@H](NC(=O)[C@H](C)NC(=O)[C@H](C)NC(=O)[C@H](CCC(N)=O)NC(=O)CNC(=O)[C@H](CCC(=O)O)NC(=O)[C@H](CC(C)C)NC(=O)[C@H](Cc1ccc(O)cc1)NC(=O)[C@H](CO)NC(=O)[C@H](CO)NC(=O)[C@@H](NC(=O)[C@H](CC(=O)O)NC(=O)[C@H](CO)NC(=O)[C@@H](NC(=O)[C@H](Cc1ccccc1)NC(=O)[C@@H](NC(=O)CNC(=O)[C@H](CCC(=O)O)NC(=O)[C@H](C)NC(=O)[C@@H](N)Cc1cnc[nH]1)[C@@H](C)O)[C@@H](C)O)C(C)C)C(=O)N[C@@H](CCC(=O)O)C(=O)N[C@@H](Cc1ccccc1)C(=O)N[C@H](C(=O)N[C@@H](C)C(=O)N[C@@H](Cc1c[nH]c2ccccc12)C(=O)N[C@@H](CC(C)C)C(=O)N[C@H](C(=O)N[C@@H](CCCNC(=N)N)C(=O)NCC(=O)N[C@@H](CCCNC(=N)N)C(=O)NCC(=O)O)C(C)C)[C@@H](C)CC)C(=O)O [Liraglutide]
Hypo Risk Index (HRI) ([1]; 1.2 mg): HRI 1 - low
Hypo Risk Index (HRI) ([1]; 1.8 mg): HRI 1 - low

CN(C)C(=N)N=C(N)N [Metformin]
Hypo Risk Index (HRI) ([1]; ≥1000 mg): HRI 1 - low
Hyperglycemia Efficacy Index (HEI) [2]: HEI 0.59

CCOc1cc(CC(=O)N[C@@H](CC(C)C)c2ccccc2N2CCCCC2)ccc1C(=O)O [Repaglinide]
Hypo Risk Index (HRI) ([1]; 1.5-12 mg): HRI 2 - medium
Hyperglycemia Efficacy Index (HEI) [2]: HEI 0.62

Dulaglutide
Hypo Risk Index (HRI) ([1]; 0.75 mg): HRI 1 - low
Hypo Risk Index (HRI) ([1]; 1.5 mg): HRI 1 - low

Exenatide LAR
Hypo Risk Index (HRI) ([1]; 2 mg): HRI 1 - low
Hyperglycemia Efficacy Index (HEI) [2]: HEI 0.76

— patent US20220101973A1, “PERSONALIZED TREATMENT TOOL” (Roche Diabetes Care, Inc., priority 2018, published 2022)
